The values that follow come from publication PMC11758220, “Identification of a Privileged Scaffold for Inhibition of Sterol Transport Proteins through the Synthesis and Ring Distortion of Diverse, Pseudo-Natural Products” (ACS Central Science, 2025).

The target in experiment [1] is T1, STARD5 (Homo sapiens, UniProt Q9NSY2).
T1 construct: STARD5(6-213); host or cells: E. coli BL21(DE3)
T1 sequence (Q9NSY2 6-213): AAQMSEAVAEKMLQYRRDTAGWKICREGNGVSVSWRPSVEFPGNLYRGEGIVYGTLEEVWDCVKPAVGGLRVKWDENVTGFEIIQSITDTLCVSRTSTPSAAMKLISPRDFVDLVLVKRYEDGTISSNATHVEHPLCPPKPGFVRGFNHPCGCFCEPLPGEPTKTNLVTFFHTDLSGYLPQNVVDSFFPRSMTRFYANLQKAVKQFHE
Briefly: Differential scanning fluorimetry (DSF), STARD5. The settings on record: for ΔTm at 10 µM / STARD5 (DSF) ΔTm: single dose, Dose = 10 µM; for Kd: apparent Kd, mean of three experiments run in technical duplicates, read-out: STARD5 Kd,app (DSF); for STARD5 (DSF) ΔTmmax: maximal thermal shift. The class given is binding.

Experiment [2] concerns the target T2, STARD4 (Homo sapiens, UniProt Q96DR4, C75S).
T2 construct: STARD4(2-205; C75S); made in house; host or cells: E. coli BL21(DE3)
T2 sequence (Q96DR4 2-205 C75S): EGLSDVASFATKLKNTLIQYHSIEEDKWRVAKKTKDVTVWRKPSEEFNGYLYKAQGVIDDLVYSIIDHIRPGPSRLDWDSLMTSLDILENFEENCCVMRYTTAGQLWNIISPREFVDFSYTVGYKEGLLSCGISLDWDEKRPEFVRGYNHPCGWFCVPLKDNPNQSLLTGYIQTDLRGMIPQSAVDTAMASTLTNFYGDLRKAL
Briefly: Differential scanning fluorimetry (DSF), STARD4. The format is binding. The settings on record: for ΔTm at 10 µM / STARD4 (DSF) ΔTm: single dose, Dose = 10 µM; for Kd: apparent Kd, mean of three experiments run in technical duplicates, read-out: STARD4 Kd,app (DSF); for STARD4 (DSF) ΔTmmax: maximal thermal shift.

In the case of `C[C@]12CC[C@@H]3C[C@H]1CC[C@@]21C(=Nc2ccc(Br)cc21)O3` (racemic) [Compound 15b], the shift in melting temperature (ΔTm) at 10 µM was determined as 0.5 °C in experiment [1] and 1.5 °C in experiment [2].
As for `Cc1c2c(nc3cc(Br)ccc13)[C@@]1(C)CC[C@@H](O)C[C@H]1CC2` [Compound 2c], the “STARD5 (DSF) ΔTm” value in experiment [1] was found to be 0.543 °C. For the same molecule, in experiment [2], the “STARD4 (DSF) ΔTm” value was found to be 0.0489 °C.
The like results for `C[C@]12CC[C@@H](O)C[C@H]1CCc1c2[nH]c2ccc(F)cc12` [Compound 10d] were, in that order, 0.145 °C and 0.167 °C.
For `C[C@]12CC[C@@H](O)C[C@H]1CCc1c2[nH]c2ccc(I)cc12` [Compound 10h], in that order: 0.241 °C and -0.0169 °C.
As for `Cc1cc(C)c2c3c([nH]c2c1)[C@@]1(C)CC[C@@H](O)C[C@H]1CC3` [Compound 10j], the figures for the thermal shift (ΔTm) at 10 µM in experiment [1] and in experiment [2] were -0.163 °C and -0.144 °C, respectively.
For `CC12CCC3CC1CCC21C(=Nc2c(Br)cc(C(F)(F)F)cc21)O3` (centres unmarked) [Compound 15h], in that order: 0.2 °C and 0.106 °C.
In the case of `C[C@]12CC[C@@H](O)C[C@H]1CCc1sc(-c3cccnc3)nc12` [Compound 8c], in experiment [1], the “STARD5 (DSF) ΔTm” value was 0.15 °C. For the same molecule, the “STARD4 (DSF) ΔTm” value in experiment [2] was 0.173 °C.
Turning to `C[C@]12CC[C@@H](O)C[C@H]1CCc1nc3cc(F)c(F)cc3nc12` [Compound 7c], the “STARD5 (DSF) ΔTm” value in experiment [1] was 0.3 °C. The “STARD4 (DSF) ΔTm” value in experiment [2] was determined as 0.0575 °C.
Take `C[C@]12CC[C@@H](O)C[C@H]1CCc1c2nc2ccccc2c1-c1ccc(F)cc1` [Compound 2d]: the figures for the ΔTm at 10 µM in experiment [1] and in experiment [2] were 0.0936 °C and -0.177 °C, respectively.
`C[C@]12CC[C@@H](O)C[C@H]1CCc1c2nc2ccccc2c1-c1ccccc1` [Compound 2b]: the “STARD5 (DSF) ΔTm” value in experiment [1] worked out at 0.0879 °C. Besides, the “STARD4 (DSF) ΔTm” value in experiment [2] is -0.0888 °C.
`C[C@]12CC[C@@H]3C[C@H]1CC[C@@]21C(=Nc2c(F)cc(Cl)cc21)O3` [Compound 15i]: the shift in melting temperature (ΔTm) at 10 µM stood at 0.109 °C in experiment [1] and 1 °C in experiment [2].
As for `CC12CCC3CC1CCC21C(=Nc2ccc(N4CCOCC4)cc21)O3` (single isomer, unassigned; (-)) [(−)-19a], in experiment [1], the Kd is greater than 30 µM, the “STARD5 (DSF) ΔTmmax” value was 5.2 °C and the “STARD5 (DSF) ΔTm” value stood at 3.3 °C. Besides, the shift in melting temperature (ΔTm) at 100 µM in experiment [1] (at 100 μM, read-out: STARD5 ΔTm^max) amounted to 4.7 °C. In experiment [2], the Kd was greater than 30 µM, the “STARD4 (DSF) ΔTmmax” value was 1.3 °C and the “STARD4 (DSF) ΔTm” value turned out to be 1.3 °C.
As for `C[C@]12CC[C@@H]3C[C@H]1CC[C@@]21C(=Nc2ccc(C(F)(F)F)cc21)O3` [Compound 15g], the ΔTm at 10 µM was 0.9 °C in experiment [1] and 1 °C in experiment [2].
Turning to `C[C@]12CC[C@@H](O)C[C@H]1CCc1nc3cc(Br)c(Br)cc3nc12` [Compound 7e], the “STARD5 (DSF) ΔTm” value in experiment [1] is 0.245 °C. In experiment [2], the “STARD4 (DSF) ΔTm” value was found to be 0.0567 °C.
In the case of `COc1ccc(-c2ccc3c(c2)C24CCC5CC(CCC52C)OC4=N3)cc1` (centres unmarked) [Compound 21b], in experiment [1], the Kd was greater than 100 µM, the “STARD5 (DSF) ΔTmmax” value stood at 0.15 °C and the thermal shift (ΔTm) at 10 µM was 1 °C. Also, in experiment [2], the “STARD4 (DSF) ΔTmmax” value is 1.2 °C and the thermal shift (ΔTm) at 10 µM stood at 0.548 °C.
In the case of `CCCCCNc1ccc2c(c1)[C@@]13CC[C@@H]4C[C@@H](CC[C@@]41C)OC3=N2` [Compound 19c], in experiment [1], the Kd worked out at 20.9 µM, the “STARD5 (DSF) ΔTmmax” value stood at 4.8 °C and the thermal shift (ΔTm) at 10 µM was 1.3 °C. For the same molecule, in experiment [2], the Kd worked out at 4.06 µM, the “STARD4 (DSF) ΔTmmax” value worked out at 7.2 °C and the ΔTm at 10 µM was found to be 4.5 °C.
Turning to `C[C@]12CC[C@@H](O)C[C@H]1CCC[C@]21NC(=O)c2ccc(F)cc2N1` [Compound 5b], in experiment [1], the “STARD5 (DSF) ΔTm” value was determined as 0.158 °C and the ΔTm at 10 µM was -0.128 °C. Further, in experiment [2], the “STARD4 (DSF) ΔTm” value stood at 0.027 °C and the thermal shift (ΔTm) at 10 µM was -0.0901 °C.
For `C[C@]12CC[C@@H](O)C[C@H]1CCc1c2[nH]c2c(F)cc(Cl)cc12` [Compound 10i], the shift in melting temperature (ΔTm) at 10 µM in experiment [1] amounted to 0.421 °C; in experiment [2], 0.441 °C.
